According to patent US20100112048A1, “Dosage Regimen and Medicament For Reducing Risk of Onset or Progression of Dementia by Administration of Specific Vitamins and Nsaid” (priority 2006, published 2010):

Tests used:
[1] = tested on: mortality of elderly Cache County participants; details: in vivo
Procedure: Also, to examine the effect of these constituents on differential mortality, logistic regression was used to estimate the relative risk of mortality over the course of follow-up among the 5 user groups. These analyses, were controlled for age, sex, education, and APOE genotype status. All analyses were performed using SAS statistical software package version 8.0.
Also, an analysis was effected to assess whether there was an increased risk of mortality among any of the user groups that might potentially bias the observed associations with cognitive performance over time.

mortality of the elderly = details: placebo-controlled trial in the elderly; cited from earlier work
[2] = tested on: mortality of 39,876 healthy participants; details: cited from earlier work

vitamin E
harm of vitamin E, subgroup analysis (in words) [1]: may only be harmful among elderly with prior cardiovascular disease
mortality associated with using vitamin E (in words) (mortality of the elderly): did not note any increased mortality
cardiovascular mortality (in words) ([2]; healthy women): trend toward decreased cardiovascular mortality
mortality vs placebo (in words) ([2]; monitored for over 10 years): no significant difference in mortality
